From US10323036B2 (Nimbus Lakshmi, Inc., priority 2016, dated 2019)
Read-outs that look alike come from different tables or passages of the source.

Target: human TYK2 (JH2domain-pseudokinase) (Homo sapiens (Human), UniProt P29597)
Assay: TYK2 JH2 Domain Binding Assay (KINOMEscan)
Details: read-out: JH2 Kd
[1] = Table 5, Tyk2 JH2 Domain Binding Assay

Chain of human TYK2 (JH2domain-pseudokinase) (P29597 556-888): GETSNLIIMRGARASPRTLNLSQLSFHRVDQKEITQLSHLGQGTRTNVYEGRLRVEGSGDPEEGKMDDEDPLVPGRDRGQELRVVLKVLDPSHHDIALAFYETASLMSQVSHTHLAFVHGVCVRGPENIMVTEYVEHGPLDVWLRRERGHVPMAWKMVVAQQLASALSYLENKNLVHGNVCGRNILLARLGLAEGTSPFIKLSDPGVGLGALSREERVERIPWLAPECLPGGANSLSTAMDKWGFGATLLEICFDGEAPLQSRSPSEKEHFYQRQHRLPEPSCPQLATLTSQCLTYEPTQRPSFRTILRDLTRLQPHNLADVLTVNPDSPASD

| Structure (SMILES) | Kd [1] | Kd (Table 4, JH2 binding assay) |
| --- | --- | --- |
| COc1c(Nc2cc(Nc3ccc(C)nn3)ncc2-c2ncc(Cl)s2)cccc1-c1nnn(C)n1 [VIII-16, 5-(5-chlorothiazol-2-yl)-N4-(2-methoxy-3-(2-methyl-2H-tetrazol-5-yl)phenyl)-N2-(6-methylpyridazin-3-yl)pyridine-2,4-diamine] | 0.1 to 1 nM |  |
| COc1c(Nc2cc(Nc3cccc(C#N)n3)nc3[nH]n(C)c(=O)c23)cccc1-c1ccn(C)n1 [Compound I-122, 6-((4-((2-methoxy-3-(1-methyl-1H-pyrazol-3-yl)phenyl)amino)-2-methyl-3-oxo-2,3-dihydro-1H-pyrazolo[3,4-b]pyridin-6-yl)amino)picolinonitrile] |  | 0.1 to 0.5 nM |
| COc1c(Nc2cc(NC(=O)C3CC3)ncc2-c2cccnn2)cccc1-c1ncn(C)n1 [VIII-11, N-(4-((2-methoxy-3-(1-methyl-1H-1,2,4-triazol-3-yl)phenyl)amino)-5-(pyridazin-3-yl)pyridin-2-yl)cyclopropanecarboxamide] | 10 to 100 nM |  |
| Cn1[nH]c2nc(NC(=O)C3CC3)cc(Nc3ccc(C4CCC4)cc3S(C)(=O)=O)c2c1=O [Compound I-182, N-(4-((4-cyclobutyl-2-(methylsulfonyl)phenyl)amino)-2-methyl-3-oxo-2,3-dihydro-1H-pyrazolo[3,4-b]pyridin-6-yl)cyclopropanecarboxamide] |  | 0.1 to 0.5 nM |
| COc1c(Nc2cc(Nc3cc(C)ccn3)nc3[nH]n(C)c(=O)c23)cccc1-c1ncn(C)n1 [Compound I-18, 4-((2-methoxy-3-(1-methyl-1H-1,2,4-triazol-3-yl)phenyl)amino)-2-methyl-6-((4-methylpyridin-2-yl)amino)-1,2-dihydro-3H-pyrazolo[3,4-b]pyridin-3-one] |  | 0.1 to 0.5 nM |
| COc1c(Nc2cc(Nc3cc(C)ccn3)nc3[nH]n(C)c(=O)c23)cccc1-c1nccs1 [Compound I-43] |  | > 10 nM |
| COCc1ccc(Nc2cc(NC(=O)C3CC3)nc3[nH]n(C)c(=O)c23)c(N(C)S(C)(=O)=O)c1 [Compound I-218] |  | < 0.1 nM |
| COc1c(Cl)cccc1Nc1cc(Nc2ccn(C)n2)nc2[nH]n(C)c(=O)c12 [Compound I-136, 4-((3-chloro-2-methoxyphenyl)amino)-2-methyl-6-((1-methyl-1H-pyrazol 3-yl)amino)-1,2-dihydro-3H-pyrazolo[3,4-b]pyridin-3-one] |  | 1 to 10 nM |
| COc1c(C#N)cccc1Nc1cc(NC(=O)C2CC2)nc2[nH]n(C)c(=O)c12 [Compound I-33] |  | > 10 nM |
| COc1c(Nc2cc(Nc3ccc(N4CCCCC4)cn3)nc3[nH]n(C)c(=O)c23)cccc1-c1ncn(C)n1 [Compound I-24, 4-((2-methoxy-3-(1-methyl-1H-1,2,4-triazol-3-yl)phenyl)amino)-2-methyl-6-((5-(piperidin-1-yl)pyridin-2-yl)amino)-1,2-dihydro-3H-pyrazolo[3,4-b]pyridin-3-one] |  | 0.1 to 0.5 nM |
| COc1c(F)cccc1Nc1cc(Nc2ccc(C3CC3)cn2)nc2[nH]n(C)c(=O)c12 [Compound I-91, 6-((5-cyclopropylpyridin-2-yl)amino)-4-((3-fluoro-2-methoxyphenyl)amino)-2-methyl-1,2-dihydro-3H-pyrazolo[3,4-b]pyridin-3-one] |  | 1 to 10 nM |
| CN(c1ccccc1Nc1cc(Nc2cnc3c(n2)CCC3)nc2[nH]n(C)c(=O)c12)S(C)(=O)=O [Compound I-225, N-(2-((6-((6,7-dihydro-5H-cyclopenta[b]pyrazin-2-yl)amino)-2-methyl-3-oxo-2,3-dihydro-1H-pyrazolo[3,4-b]pyridin-4-yl)amino)phenyl)-N-methylmethanesulfonamide] |  | < 0.1 nM |
| CCc1ncc(Nc2cc(Nc3cccc(Cl)c3OC)c3c(=O)n(C)[nH]c3n2)nc1C#N [Compound I-147, 6-((4-((3-chloro-2-methoxyphenyl)amino)-2-methyl-3-oxo-2,3-dihydro-1H-pyrazolo[3,4-b]pyridin-6-yl)amino)-3-ethylpyrazine-2-carbonitrile] |  | > 10 nM |
| COc1c(Cl)cccc1Nc1cc(Nc2ccc(N3CC[C@H](OC)C3)c(C#N)n2)nc2[nH]n(C)c(=O)c12 [Compound I-145, (S)-6-((4-((3-chloro-2-methoxyphenyl)amino)-2-methyl-3-oxo-2,3-dihydro-1H-pyrazolo[3,4-b]pyridin-6-yl)amino)-3-(3-methoxypyrrolidin-1-yl)picolinonitrile] |  | 0.1 to 0.5 nM |
| COc1c(Nc2cc(Nc3cccc(C#N)n3)ncc2-c2ncc(Cl)s2)cccc1-c1nnn(C)n1 [VIII-15, 6-((5-(5-chlorothiazol-2-yl)-4-((2-methoxy-3-(2-methyl-2H-tetrazol-5-yl)phenyl)amino)pyridin-2-yl)amino)picolinonitrile] | 1 to 10 nM |  |
| CCNC(=O)c1ccc(Nc2cc(NC(=O)C3CC3)nc3[nH]n(C)c(=O)c23)c(OC)c1 [Compound I-114, 4-((6-(cyclopropanecarboxamido)-2-methyl-3-oxo-2,3-dihydro-1H-pyrazolo[3,4-b]pyridin-4-yl)amino)-N-ethyl-3-methoxybenzamide] |  | 1 to 10 nM |
| COc1c(Cl)cccc1Nc1cc(Nc2cc(CO)ccn2)nc2[nH]n(C)c(=O)c12 [Compound I-101, 4-((3-chloro-2-methoxyphenyl)amino)-6-((4-(hydroxymethyl)pyridin-2-yl)amino)-2-methyl-1,2-dihydro-3H-pyrazolo[3,4-b]pyridin-3-one] |  | 1 to 10 nM |

| Structure (SMILES) | Kd [1] | Kd (Table 4, JH2 binding assay) |
| --- | --- | --- |
| COc1c(Nc2cc(Nc3ccccn3)nc3[nH]n(C)c(=O)c23)cccc1-c1ncn(C)n1 [Compound I-17, 4-((2-methoxy-3-(1-methyl-1H-1,2,4-triazol-3-yl)phenyl)amino)-2-methyl-6-(pyridin-2-ylamino)-1,2-dihydro-3H-pyrazolo[3,4-b]pyridin-3-one] |  | < 0.1 nM |
| CN(c1cc(Cl)ccc1Nc1cc(NC(=O)C2CC2)nc2[nH]n(C)c(=O)c12)S(C)(=O)=O [Compound I-228, N-(4-((4-chloro-2-(N-methylmethylsulfonamido)phenyl)amino)-2-methyl-3-oxo-2,3-dihydro-1H-pyrazolo[3,4-b]pyridin-6-yl)cyclopropanecarboxamide] |  | 0.1 to 0.5 nM |
| COc1c(Cl)cccc1Nc1cc(NC(=O)C2CC2)nc2[nH]n(C)c(=O)c12 [Compound I-49, N-(4-((3-chloro-2-methoxyphenyl)amino)-2-methyl-3-oxo-2,3-dihydro-1H-pyrazolo[3,4-b]pyridin-6-yl)cyclopropanecarboxamide] |  | 0.5 to 1 nM |
| CN(c1cc(C2CCOCC2)ccc1Nc1cc(NC(=O)C2CC2)nc2[nH]n(C)c(=O)c12)S(C)(=O)=O [Compound I-234] |  | 0.1 to 0.5 nM |
| COc1c(F)cccc1Nc1cc(Nc2ccn(C)n2)nc2[nH]n(C)c(=O)c12 [Compound I-78, 4-((3-fluoro-2-methoxyphenyl)amino)-2-methyl-6-((1-methyl-1H-pyrazol-3-yl)amino)-1,2-dihydro-3H-pyrazolo[3,4-b]pyridin-3-one] |  | 1 to 10 nM |
| COc1c(Nc2cc(Nc3ccc(N4CCCCC4)cn3)nc3[nH]n(C)c(=O)c23)cccc1-c1ccn(C)n1 [Compound I-124, 4-((2-methoxy-3-(1-methyl-1H-pyrazol-3-yl)phenyl)amino)-2-methyl-6-((5-(piperidin-1-yl)pyridin-2-yl)amino)-1,2-dihydro-3H-pyrazolo[3,4-b]pyridin-3-one] |  | 1 to 10 nM |
| Cn1[nH]c2nc(NC(=O)C3CC3)cc(Nc3ccc(C4CC4)cc3S(C)(=O)=O)c2c1=O [Compound I-201, N-(4-((4-cyclopropyl-2-(methylsulfonyl)phenyl)amino)-2-methyl-3-oxo-2,3-dihydro-1H-pyrazolo[3,4-b]pyridin-6-yl)cyclopropanecarboxamide] |  | < 0.1 nM |
| Cn1[nH]c2nc(Nc3cncc(C#N)n3)cc(Nc3ccccc3S(C)(=O)=O)c2c1=O [Compound I-119, 6-((2-methyl-4-((2-(methylsulfonyl)phenyl)amino)-3-oxo-2,3-dihydro-1H-pyrazolo[3,4-b]pyridin-6-yl)amino)pyrazine-2-carbonitrile] |  | 1 to 10 nM |
| COc1cc(C2CCC2)ccc1Nc1cc(NC(=O)C2CC2)nc2[nH]n(C)c(=O)c12 [Compound I-51] |  | > 10 nM |
| COc1c(Nc2cc(Nc3ccc(C)nn3)ncc2-c2nnc(CO)o2)cccc1-c1ncn(C)n1 [VIII-12, (5-(4-((2-methoxy-3-(1-methyl-1H-1,2,4-triazol-3-yl)phenyl)amino)-6-((6-methylpyridazin-3-yl)amino)pyridin-3-yl)-1,3,4-oxadiazol-2-yl)methanol] | 0.1 to 1 nM |  |
| COCc1ccnc(Nc2cc(Nc3cccc(Cl)c3OC)c3c(=O)n(C)[nH]c3n2)c1 [Compound I-97, 4-((3-chloro-2-methoxyphenyl)amino)-6-((4-(methoxymethyl)pyridin-2-yl)amino)-2-methyl-1,2-dihydro-3H-pyrazolo[3,4-b]pyridin-3-one] |  | 0.5 to 1 nM |
| COc1c(F)cccc1Nc1cc(Nc2ccc(N3CCCCC3)cn2)nc2[nH]n(C)c(=O)c12 [Compound I-77, 4-((3-fluoro-2-methoxyphenyl)amino)-2-methyl-6-((5-(piperidin-1-yl)pyridin-2-yl)amino)-1,2-dihydro-3H-pyrazolo[3,4-b]pyridin-3-one] |  | 1 to 10 nM |
| COCc1ccnc(Nc2cc(Nc3cccc(-c4ncn(C)n4)c3OC)c3c(=O)n(C)[nH]c3n2)c1 [Compound I-15, 4-((2-methoxy-3-(1-methyl-1H-1,2,4-triazol-3-yl)phenyl)amino)-6-((4-(methoxymethyl)pyridin-2-yl)amino)-2-methyl-1,2-dihydro-3H-pyrazolo[3,4-b]pyridin-3-one] |  | 0.1 to 0.5 nM |
| Cn1[nH]c2nc(NC(=O)[C@@H]3C[C@@H]3F)cc(Nc3ccc(C4CC4)cc3S(C)(=O)=O)c2c1=O [Compound I-210] |  | 0.1 to 0.5 nM |
| COc1c(Nc2cc(Nc3cccc(N4CC(OC)C4)n3)nc3[nH]n(C)c(=O)c23)cccc1-c1nnn(C)n1 [Compound I-63, 4-((2-methoxy-3-(2-methyl-2H-tetrazol-5-yl)phenyl)amino)-6-((6-(3-methoxyazetidin-1-yl)pyridin-2-yl)amino)-2-methyl-1,2-dihydro-3H-pyrazolo[3,4-b]pyridin-3-one] |  | 0.1 to 0.5 nM |
| Cn1[nH]c2nc(NC(=O)C3CC3)cc(Nc3ccccc3P(C)(C)=O)c2c1=O [Compound I-125, N-(4-((2-(dimethylphosphoryl)phenyl)amino)-2-methyl-3-oxo-2,3-dihydro-1H-pyrazolo[3,4-b]pyridin-6-yl)cyclopropanecarboxamide] |  | > 10 nM |
